Reference: US8247170B2, “Detection of penicillin tolerance in Group B Streptococcus: single nucleotide polymorphisms in penicillin binding protein 4” (priority 2008, dated 2012)

Tested on: GBS laboratory strains and clinical isolates
Assay: Microbroth (96-well) penicillin tolerance assay
Type: cell-based, Group B Streptococcus
Settings: for Penicillin Phenotypes: 48 hr penicillin, 24 hr drug free culture; for replication or viability after re-plate and additional 24-hour culture (FIG. 1): penicillin G 1× to 256×MIC90 48 hours
Experimental: An in vitro method involving microbroth (96-well) culture was used to develop a penicillin tolerance assay. In this assay, the inventors tested three laboratory bacterial strains (i.e., GBS strains A909, NEM316, and O90R). These cells were commercially obtained from ATCC source. Bacterial cells were cultured overnight for 18 hours at 37° C. in Todd-Hewitt Broth (THB). Subcultures in THB were subsequently grown to exponential phase (OD600˜0.3) at 37° C. Cell cultures were then exposed to different concentrations of penicillin G (Sigma, St. Louis, Mo.). […] Cell cultures were dispersed. A dilution (i.e., 1 to 20) of cells was re-plated into new wells containing fresh THB with 500 U Penase (to destroy residual penicillin). Cell cultures were allowed to grow for an additional 24 hours at 37° C. Assays were repeated four (4) times and standard bar represents standard deviations.
Using this established 96-well assay (i.e., microbroth assay), 115 clinical isolates of GBS were further tested. These were cervico-vaginal rectal clinical isolates (obtained from pregnant humans), and characterized their penicillin tolerance. The phenotype definitions (above) were used to identify the penicillin tolerant isolates.
(I) Bacterial Strains and Culture Conditions. GBS strains A909 (serotype IA), 515 (serotype IA), NEM316 (serotype III), COHI (serotype III), 2603V/R (serotype V) and O90R (non-typable) were used in this study. E. coli Top10 cells were used for the recombination experiments. GBS was cultured in Todd Hewitt broth (THB) or Tryptic Soy 5% sheep blood (TS) media and E. coli in Luria-broth (LB) medium or agar. Antibiotics were used at the following concentrations: for GBS—penicillin G (MIC90 0.06 μg ml^−1), ampicillin (MIC90 0.12 μg ml^−1), vancomycin (MIC90 2 μg ml^−1), cefazolin (MIC90 1 μg ml^−1) and chloramphenicol (5 μg ml^−1); for E. coli—ampicillin (50 μg ml^−1) and chloramphenicol (5 μg ml^−1). Both GBS and E. coli cultures were grown at 37° C. (II) Tolerance Using the MBC:MIC Ratio Method. Three GBS laboratory strains (i.e., A909, NEM316, and O90R) were cultured overnight for 18 h at 37° C. in THB. Subcultures in THB were subsequently grown to exponential phase (OD600˜0.3; i.e. 5×10^5 cfu/ml) at 37° C. Cell cultures were then exposed to different concentrations of antibiotics (Penicillin G, Ampicillin, Cefozolin or Vancomycin). […] Cell cultures were dispersed every 18 h before OD600 was measured to determine the lowest concentration of antibiotic with 90% growth inhibition (MIC90). Antibiotic treated cells (8 μl) from each well were re-suspended into PBS (100 μl) and plated (54 μl) on TS agar plates and allowed to grow for an additional 24 h at 37° C. Cell count was performed to determine the lowest concentration of antibiotic with 90% killing of original inoculums (MBC90). (III) Penicillin Killing and Regrowth Tolerance Assay by Microbroth Dilution. Three GBS laboratory strains (i.e., A909, NEM316, and O90R) were cultured overnight for 18 h at 37° C. in THB. Subcultures in THB were subsequently grown to exponential phase (OD600˜0.3) at 37° C. Cell cultures were then exposed to different concentrations of Penicillin G (Sigma, St. Louis, Mo.). […] Cell cultures were dispersed. A 1:20 dilution of cells was re-plated into new wells containing fresh THB with 500 U Penase (to degrade residual penicillin). Cell cultures were allowed to re-grow for an additional 24 h at 37° C. before the OD600 was measured. (IV) Measuring Cell Viability by Determining ATP Concentration. GBS strains were cultured for 18 h at 37° C. in THB. These cells were inoculated into fresh THB and subsequently allowed to grow to exponential phase (OD600 0.25-0.3) at 37° C. One ml of each culture was centrifuged at 5,000×g for 4 min. The cell pellet was re-suspended in ATP-free water. Cellular ATP was extracted using trichloroacetic acid (TCA) (5%) for 2 min and subsequently neutralized with Tris-EDTA-0.1M NaOAc, pH 7.75 to 10×TCA volume. […]

## CC1(C)S[C@@H]2[C@H](NC(=O)Cc3ccccc3)C(=O)N2[C@H]1C(=O)O [Penicillin G]
115 clinical isolates
  % GBS Clinical Strains, Intermediate: 8%
  % GBS Clinical Strains, Paradoxical Effect-Penicillin Tolerance (PE-PT): 27%
  % GBS Clinical Strains, Penicillin Tolerance (PT): 16%
  % GBS Clinical Strains, Susceptible (S): 49%
GBS laboratory strain A909
  Penicillin Phenotypes: Susceptible (S)
GBS laboratory strain NEM316
  Penicillin Phenotypes: Paradoxical Effect-Penicillin Tolerance (PE-PT)
GBS laboratory strain O90R
  Penicillin Phenotypes: Penicillin Tolerance (PT)
GBS strain A909
  replication or viability after re-plate and additional 24-hour culture (FIG. 1): did not replicate
GBS strain NEM316, viability lost at 16× to 64×MIC90
  replication or viability after re-plate and additional 24-hour culture (FIG. 1): paradoxical effect
GBS strain O90R
  replication or viability after re-plate and additional 24-hour culture (FIG. 1): did not inhibit the replication or viability
